Entries after “also recorded” stand apart in the source; their conditions may differ.
What was measured:
HEK293T cells = test: 3-germ layer immunocytochemistry of embryoid bodies (FIG. 29); assay type: cell-based, human; settings: compared with H1 and iPSCs
Description: (§1) Pluripotent cells can differentiate into all cell types, so these cells can be a biological resource for regenerative medicine. Somatic cells can acquire the embryonic stem cell-like pluripotency by the introduction of four transcription factors, Oct4, Sox2, Klf4 and c-Myc (Yamanaka factors). Murine ES-like cell lines were established from mouse embryonic fibroblasts (MEFs) and skin fibroblasts by simply expressing these four transcription factor genes encoding Oct4, Sox2, Klf4, and c-Myc (71). After introducing active transcription factors into somatic cells, the somatic cells closely resemble ES cells in gene expression patterns, cell biologic and phenotypic characteristics. Since then, numerous studies have established that these transcription factors mediate reprogramming regardless of developmental origins and epigenetic states of a cell. These transcription factors are non-functional in somatic cells due to gene silencing. […] Using the technology disclosed herein, nuclear reprogramming of somatic cells was induced possibly due to active Oct4, Sox2, Nanog, and other pluripotency genes, reduced DNA methylation, reduced histone methylation, and altered metabolism of certain biochemical factors (such as glutamine, glutamate, and GABA). This leads to the formation of embryoid bodies from single cells and differentiation into the mesoderm, endoderm, and neuronal ectoderm lineages with high efficiency in the differentiation medium. The 3-Germ Layer Immunocytochemistry Kit (ThermoFisher Scientific, USA), which analyzes spontaneously differentiated embryoid bodies derived from pluripotent stem cells for the presence of all 3-germ layers, was used to confirm the reprogramming. The assay detected widely accepted markers characteristic of the three embryonic germ layers: beta-Ill tubulin (TUJ1) for ectoderm, smooth muscle actin (SMA) for mesoderm, and alpha-fetoprotein (AFP) for endoderm. […] The ectoderm which differentiates to form the nervous system (spine, peripheral nerves, neurons, and brain) was not tested with this kit; however, the presence of neurons was confirmed by a different marker. A Human Neural Stem Cell Immunocytochemistry Kit (ThermoFisher Scientific, USA) which enables a convenient image-based analysis of common markers of human neural stem cells such as Nestin was used. […] Together, the disclosed methods result in the presence of all 3-germ layers in the MTX/PTX treated cells and these treated cells can differentiate into all cell types including beta cells.
(§2) A 3-germ layer immunocytochemistry kit (Thermo Fisher Scientific, USA) was used to assess the pluripotency of embryoid bodies derived from MTX and PTX treated cells.

HF57 = test: as above; assay type: cell-based, human; settings: compared with H1 and iPSCs
Description: as §1, §2

[1] = Cell viability after MTX or PTX treatment (FIG. 17); assay type: cell-based; settings: human; for viability: post MTX or PTX treatment; for viability at 5 days: HEK293T cells, after 5-days of MTX or PTX treatment, read-out: viable cells
Procedure: Call quantification, imaging, and statistical analysis: Cells were quantified using a Cellometer Auto T4 counting chamber after mixing in a 1:1 ratio with Trypan blue (MilliporeSigma) to exclude dead cells. The average of 2 separate counts was taken to calculate the cell numbers. All live cell imaging was conducted using an EVOS FL Auto microscope (Thermo Fisher Scientific). All statistical analysis was performed using a paired Student's t test with Bonferroni correction or 1-sample Student's t test. Values of P<0.05 were considered significant.

[2] = test system: human fibroblast (HF57) cells; test: Immunofluorescence of pluripotency surface markers (FIG. 25, 26); assay type: cell-based; settings: for SSEA-4 and TRA 1-60 surface markers immunofluorescence: 1 μM for 7 days, DMEM with low methionine (15 mg/L)
Procedure: Post MTX treatment, the cells were labeled using primary antibodies (ant-SSEA4-anti mouse IgG3) followed by secondary antibodies conjugated to Alexa Fluor 488 goat anti-mouse IgG3. The cells were counterstained with DAPI. […] The cells were grown in regular DMEM medium with or without MTX. Scale Bar=400 μM.
Post MTX treatment, the cells were labeled using primary antibodies (anti-SSEA4-anti mouse IgG3 and anti-TRA 1-60 host-rabbit) followed by secondary antibodies conjugated to (Alexa Fluor 488 goat anti-mouse IgG3 and Alexa Fluor 594 donkey anti-rabbit). The cells were counterstained with DAPI. […] The cells were grown in DMEM medium with low methionine (15 mg/L). Scale Bar=400 μM (FIG. 26A); Scale Bar=200 μM (FIG. 26B).
Immunofluorescence analysis: The relative optimal image-based analysis of 2 key human pluripotent stem cells markers [octamer-binding transcription factor 4 (OCT4) and stage-specific embryonic antigen 4 (SSEA4)] was performed using the Pluripotent Stem Cell Immunocytochemistry Kit (Thermo Fisher Scientific) according to the manufacturer's instructions. Briefly, the cells were grown in 10% FBS DMEM supplemented with NEAAs and Glutamax in wells coated with 0.1% gelatin. For immunofluorescence localization, the cells were stained for SSEA4 and Oct4 and counterstained with DAPI using the kit (Thermo Fisher Scientific). The endogenous proteins were labeled using primary antibodies (anti-SSEA4 anti-mouse IgG3 and anti-OCT4 host-rabbit) followed by secondary antibodies conjugated to Alexa Fluor 488 goat anti-mouse IgG3 and Alexa Fluor 594 donkey anti-rabbit.
The quiescent nature of the MTX and PTX cells and the association of demethylation with the generation of induced pluripotent stem cells led to examining markers for stem cells formation. The 293T and HF57 cells were grown on 5% dialyzed FBS DMEM medium. DMEM without methionine, DMEM with 15 mg/L (half dose) and DMEM with 30 mg/L (regular DMEM) were used to grow the cells. […] Subsequently, the cells were assessed for markers linked to stem cells. […]

HF57 cells = test: Global DNA methylation, 5mC ELISA (FIG. 18); assay type: cell-based, human; settings: 7-days; vs untreated cells
Procedure: Equal amount of DNA (100 ng) was analyzed with 5mC enzyme-linked immunosorbent assay (ELISA) (EpiGentek). […] Error bars represent the standard error for at least three independent experiments and three technical replicates.
Global DNA methylation measurement Global 5-methylcytosine (5-mC) levels were quantified using the MethylFlash Methylated DNA Quantification Kits (Epigentek, Farmingdale, NY, USA). The DNA concentration was determined using the Qubit Assay (Thermo Fisher Scientific) according to the manufacturer's protocol. Briefly, 100 ng of DNA was used for incubation with both capture and detection antibodies using MethylFlash Methylated DNA Quantification Kit (Colorimetric) from Epigentek. Subsequently, measurements of the absorbance of the sample at 450 nm in a microplate spectrophotometer (BioTek Instruments, Winooski, VT, USA) were performed with the percentage of the whole genome 5-mC calculation according to manufacturer's instructions. Genomic methylation levels in study samples were expressed as percentage of 5-mC.

| SMILES | presence of three germ layers in embryoid bodies (HEK293T cells) | presence of three germ layers in embryoid bodies (HF57) | viability ([1]; HDF fibroblast cell line) [%] | viability at 5 days [1] [%] | viability ([1]; HF57 fibroblast cell line) [%] | SSEA-4 and TRA 1-60 surface markers immunofluorescence [2] | global DNA methylation (5mC content) (HF57 cells) | SSEA-4 surface antigen immunofluorescence ([2]; 1 μM for 9-days, regular DMEM, no signals in control cells) |
| --- | --- | --- | --- | --- | --- | --- | --- | --- |
| Nc1nc2[nH]cc(CCc3ccc(C(=O)N[C@@H](CCC(=O)O)C(=O)O)cc3)c2c(=O)[nH]1 [PTX, pemetrexed] | confirmed the presence of all three germ layers | confirmed the presence of all three germ layers | 60 to 75 | 20 to 25 | 60 to 75 | expression of SSEA-4 and TRA 1-60 surface markers | significant reduction in global DNA methylation | – |
| CN(Cc1cnc2nc(N)nc(N)c2n1)c1ccc(C(=O)N[C@@H](CCC(=O)O)C(=O)O)cc1 [MTX, methotrexate] | confirmed the presence of all three germ layers | confirmed the presence of all three germ layers | 60 to 75 | 20 to 25 | 60 to 75 | high levels of SSEA-4 and TRA 1-60; also recorded: expression of SSEA-4 and TRA 1-60 surface antigens | significant reduction in global DNA methylation | expression of SSEA-4 surface antigens |
